From paper PMC6588243, “Fate of ptaquiloside—A bracken fern toxin—In cattle” (PLoS ONE, 2019)
Entries after “also recorded” stand apart in the source; their conditions may differ. Read-outs that look alike come from different tables or passages of the source.

What was measured:
[1] = Toxicokinetics in plasma after oral administration of bracken extract or dried bracken fern; format: in vivo, Jersey heifers; conditions: for PTA in plasma after oral administration: bracken extract or dried bracken fern, Experiments 2, 3 and 5; for AUC0-∞ / MTT mean transit time: PTB in plasma; for Cmax / Tmax / k el: female, Jersey, plasma, po; for Cmax: read-out: Cmax maximum concentration; for k el: read-out: λz terminal slope (converted)
Procedure: Two heifers (no’s 4848 and 4849) were used in a series of five experiments (Table 1) in a cross-over design including intravenous administration of pure PTA, oral administration of bracken extract and oral administration of dried bracken fern. At least 2 weeks elapsed between each experiment.
(§1) Oral exposure, bracken extract. Bracken extract was administered orally by gavage in Experiment 2 (170 and 172 mL) and Experiment 5 (820 and 850 mL), to obtain PTA doses of 0.41 and 2 mg kg^-1 b.w (1.025 and 5.000 μmoles kg^-1), respectively. Blood and urine samples were collected up to 48 hours after gavage and samples were processed and stored as described previously.
(§2) Oral exposure, dried bracken fern. In Experiment 3, dried bracken fern was milled to a fine powder. Immediately before administration, the powder was mixed with water to produce a slurry (15 g of bracken per 100 mL of water). The slurry was administered orally by gavage (400 mL and 380 mL) corresponding to a PTA dose of 1.6 mg kg^-1 b.w (4 μmoles kg^-1). Blood and urine samples were collected up to 72 hours after gavage and the samples were processed and stored as described above.
(§3) Concentrations of PTA in plasma of individual animals were evaluated by non-compartmental analysis. Toxicokinetic variables were calculated using standard kinetic equations. The area under the curve (AUC) and the area under the first moment curve (AUMC) were determined using combined linear and natural logarithm trapezoidal rules. The terminal elimination rate was determined using the last three data points of the curve.
(§4) PTA and PTB were analysed by LC-MS after purification using solid phase extraction (SPE) columns as reported in Aranha et al.. The limit of quantification of PTA and PTB in plasma was 3.0 x 10^−3 μM and 9.30 x 10^−3 μM, respectively. Limit of quantifications in diluted urine was 13 x 10^−3 μM for PTA and 8.28 x 10^−3μM for PTB.

[2] = Urinary recovery after oral administration of bracken extract or dried bracken fern; format: in vivo, Jersey heifers; conditions: for PTB recovered in urine: oral bracken extract or dried fern, within 24 hours
Procedure: as §1, §2, §4

[3] = Incubation of bracken extract in rumen liquid, in vitro; format: in vitro ADME, Jersey cows; conditions: boiled (sterilized) or pre-frozen rumen fluid
[4] = cited from earlier work
[5] = One-week repeated dose trial with dried bracken, plasma toxicokinetics; format: in vivo, Jersey heifers; conditions: for AUC0-∞ / MTT: PTB in plasma, daily PTA dose 2 mg kg^-1
Text: The two heifers used for the single dose trials were also used for the one week repeated dose study together with an additional two Jersey heifers (no’s 1550 and 1567; Harald Hansen Eftf. I/S, Slangerup, Denmark) weighing 163 to 237 kg. The additional two heifers had never been exposed to PTA or to bracken fern. A wash-out period of 20 days between the last single-dose experiment and the one week repeated dose trial was established for heifers no’s 4848 and 4849.
All four heifers were fed dried bracken powder (top-dressed and molasses added). twice a day during a period of 7 days providing a daily PTA dose of 2 mg kg^-1 (5 μmoles kg^-1). On Day 8, the heifers no 4848 and no 1567 were additionally fed in the morning and euthanized 1 hour after using a captive bolt pistol and exsanguination. The two other heifers (no 4849 and no 1550) were euthanized 15 h after the last dose on Day 7 (Fig 2).
Blank blood samples were collected before the first dose was given. On Day 1 and Day 7 blood samples were collected after the morning dose at predetermined time points between 1 and 6 h after dosing (1, 2, 3, 5 and 6 hours). On Day 2 to Day 6 blood samples were collected daily 1 hour after 50% or more of the morning feed had been ingested, since the bracken fern was not eaten instantly. On Day 8 blood samples were collected just before euthanasia. Blood samples were processed and stored as described above.
as §3

[6] = parameters: method as in PMID 21456622; conditions: calves fed P. esculentum, PTA dose 4.5 μmol kg^-1 b.w.; cited from earlier work
[7] = cows fed bracken for 5 days, PTA dose 23 μmol kg^-1
[8] = oral bracken extract, PTA dose 1.03 μmoles kg^-1, heifer no 4848
[9] = oral bracken extract, PTA dose 1.03 μmoles kg^-1, heifer no 4849
[10] = oral bracken extract, PTA dose 5.02 μmoles kg^-1, heifer no 4848
[11] = oral bracken extract, PTA dose 5.02 μmoles kg^-1, heifer no 4849
[12] = oral dried bracken, PTA dose 4.02 μmoles kg^-1, heifer no 4848
[13] = oral dried bracken, PTA dose 4.02 μmoles kg^-1, heifer no 4849
[14] = bovine, 1.03 μmoles kg^-1, PTB in plasma, oral bracken extract, PTA dose 1.03 μmoles kg^-1, heifer no 4848
[15] = bovine, 1.03 μmoles kg^-1, PTB in plasma, oral bracken extract, PTA dose 1.03 μmoles kg^-1, heifer no 4849
[16] = bovine, 4.02 μmoles kg^-1, PTB in plasma, oral dried bracken, PTA dose 4.02 μmoles kg^-1, heifer no 4848
[17] = bovine, 4.02 μmoles kg^-1, PTB in plasma, oral dried bracken, PTA dose 4.02 μmoles kg^-1, heifer no 4849
[18] = bovine, 5.02 μmoles kg^-1, PTB in plasma, oral bracken extract, PTA dose 5.02 μmoles kg^-1, heifer no 4848
[19] = bovine, 5.02 μmoles kg^-1, PTB in plasma, oral bracken extract, PTA dose 5.02 μmoles kg^-1, heifer no 4849
[20] = Day 1, heifer 1550, dried bracken twice a day
[21] = Day 1, heifer 1567, dried bracken twice a day
[22] = Day 1, heifer 4848, dried bracken twice a day
[23] = Day 1, heifer 4849, dried bracken twice a day
[24] = Day 7, heifer 1550, dried bracken twice a day
[25] = Day 7, heifer 1567, dried bracken twice a day
[26] = Day 7, heifer 4848, dried bracken twice a day
[27] = Day 7, heifer 4849, dried bracken twice a day

## CC1=C[C@]2(O[C@@H]3O[C@H](CO)[C@@H](O)[C@H](O)[C@H]3O)C[C@@H](C)C(=O)[C@@H]2[C@](C)(O)C12CC2 [PTA, (2'R,3a'R,4'S,7a'R)-4'-Hydroxy-2',4',6'-trimethyl-3'-oxo-2',3',3a',4'-tetrahydrospiro[cyclopropane-1,5'-inden]-7a'(1'H)-yl β-D-glucopyranoside]
[1]
  PTA in plasma after oral administration: not detected; also recorded: neither detected
[1]; listed as ptaquiloside
  PTA in plasma after oral administration: did not result in observations of ptaquiloside in body fluids
[2]; bracken extract or dried bracken fern
  PTA in urine after oral administration: neither detected
[3]
  degradation of PTA in boiled or pre-frozen rumen fluid: did not reveal any degradation; also recorded: did not degrade PTA
[4]
  time after feeding bracken at which PTA was found in milk: 38 h
[4]; [7]
  PTA excreted in milk as share of the dose: 9.6 % of the dose
  plateau of PTA excreted in milk: 50 µM
[4]; one cow fed 6 kg freshly cut bracken daily for 7 days, PTA 540 μmol day^-1
  PTA concentration in milk: 0.28 µM
[5]; dried bracken, 7 days
  PTA in plasma after repeated oral administration: not detected

## Cc1cc2c(c(C)c1CCO)C(=O)[C@H](C)C2 [PTB, pterosin B]
[1]; [8]
  AUC0-∞: 0.177 µM·h
  MTT mean transit time: 3.82 h
[1]; [9]
  AUC0-∞: 0.367 µM·h
  MTT mean transit time: 4.55 h
[1]; [10]
  AUC0-∞: 0.594 µM·h
  MTT mean transit time: 2.89 h
[1]; [11]
  AUC0-∞: 0.657 µM·h
  MTT mean transit time: 3.02 h
[1]; [12]
  AUC0-∞: 0.897 µM·h
  MTT mean transit time: 3.29 h
[1]; [13]
  AUC0-∞: 0.428 µM·h
  MTT mean transit time: 3.58 h
[1]; bracken extract or dried ferns
  PTB in plasma and urine after oral administration: detected in both plasma and urine
[1]; [14]
  Cmax: 28 nM
  k el: 6.5e-05 s⁻¹
[1]; bovine, 1.03 μmoles kg^-1, PTB in plasma, oral bracken extract, PTA dose 1.03 μmoles kg^-1, heifer no 4848, read-out: Tmax time at maximum concentration
  Tmax: 2 h
[1]; [15]
  Cmax: 43 nM
  k el: 2.78e-05 s⁻¹
[1]; bovine, 1.03 μmoles kg^-1, PTB in plasma, oral bracken extract, PTA dose 1.03 μmoles kg^-1, heifer no 4849, read-out: Tmax time at maximum concentration
  Tmax: 0.5 h
[1]; [16]
  Cmax: 182 nM
  k el: 8.56e-05 s⁻¹
[1]; bovine, 4.02 μmoles kg^-1, PTB in plasma, oral dried bracken, PTA dose 4.02 μmoles kg^-1, heifer no 4848, read-out: Tmax time at maximum concentration
  Tmax: 0.5 h
[1]; [17]
  Cmax: 74 nM
  k el: 7.78e-05 s⁻¹
[1]; bovine, 4.02 μmoles kg^-1, PTB in plasma, oral dried bracken, PTA dose 4.02 μmoles kg^-1, heifer no 4849, read-out: Tmax time at maximum concentration
  Tmax: 2 h
[1]; [18]
  Cmax: 160 nM
  k el: 0.000106 s⁻¹
[1]; bovine, 5.02 μmoles kg^-1, PTB in plasma, oral bracken extract, PTA dose 5.02 μmoles kg^-1, heifer no 4848, read-out: Tmax time at maximum concentration
  Tmax: 1 h
[1]; [19]
  Cmax: 174 nM
  k el: 8.06e-05 s⁻¹
[1]; bovine, 5.02 μmoles kg^-1, PTB in plasma, oral bracken extract, PTA dose 5.02 μmoles kg^-1, heifer no 4849, read-out: Tmax time at maximum concentration
  Tmax: 0.75 h
[1]; cattle, PTB, oral bracken extract and bracken fern, read-out: time to maximum concentration in plasma (Tmax)
  Tmax: ~1 h
[2]
  PTB recovered in urine: up to 7 % of the dose
[2]; listed as Pterosin B
  PTB recovered in urine: 7 % of the dose
[5]; Day 1, average of four heifers
  AUC0-∞: 0.774 µM·h
  MTT: 3.8 h
[5]; [20]
  AUC0-∞: 0.386 µM·h
  MTT: 2.3 h
[5]; [21]
  AUC0-∞: 1.248 µM·h
  MTT: 4.4 h
[5]; [22]
  AUC0-∞: 0.873 µM·h
  MTT: 4.6 h
[5]; [23]
  AUC0-∞: 0.591 µM·h
  MTT: 3.9 h
[5]; Day 7, average of four heifers
  AUC0-∞: 0.849 µM·h
  MTT: 3.4 h
[5]; [24]
  AUC0-∞: 0.606 µM·h
  MTT: 3.2 h
[5]; [25]
  AUC0-∞: 1.264 µM·h
  MTT: 3.6 h
[5]; [26]
  AUC0-∞: 0.968 µM·h
  MTT: 3.9 h
[5]; [27]
  AUC0-∞: 0.558 µM·h
  MTT: 3.0 h
[5]; after the morning dose
  transient peak of PTB in plasma as share of the PTA dose: 10%
[5]; mean AUC0-∞ Day 1 vs Day 7
  accumulation of PTB in the organism: not accumulated
[6]
  peak concentration of PTB in plasma relative to the single dose study of this paper: 26 times
